The subject of data set [1] is CaPan2. Nature of the data set: Cell proliferation assay (CellTiter-Glo). Format: cell-based. Particulars: Homo sapiens, Capan-2; Pancreas; 72 hours, 0.5% fetal bovine serum; read-out: antiproliferative activity IC50, CaPan2. The protocol: (§1) Cell Proliferation Assay:
(§2) Cancer cell lines were plated at 5,000 to 10,000 per well in 96-well flat bottomed plates with various concentration of compounds. The cells were incubated with compounds for 72 hours in the presence of 0.5% of fetal bovine serum. Growth inhibition was accessed by adenosine triphosphate (ATP) content assay using Promega CellTiter-Glo kit. Promega CellTiter-Glo kit is an ATP monitoring system based on firefly luciferase. Briefly, 16 μl of mammalian cell lysis and substrate solution was added to 84 μl of culture medium per well to lyse the cells and stabilize the ATP. The mixture was shaken and incubated for 30 minutes and subsequently the luminescence was measured.

Data set [2] concerns MDA-MB-231. Nature of the data set: Cell proliferation assay (CellTiter-Glo). Particulars: Homo sapiens, Breast, 72 hours, 0.5% fetal bovine serum, read-out: antiproliferative activity IC50, MDA-MB-231. Format: cell-based. As for the experimental part:
as §1, §2
Background: In ATP-based viability assays light output follows the ATP content of the culture.

Data set [3] has as its system Calu6. The data set can be described thus: Cell proliferation assay (CellTiter-Glo). Format: cell-based. Particulars: Homo sapiens, Calu-6; NSCLC; 72 hours, 0.5% fetal bovine serum; read-out: antiproliferative activity IC50, Calu6. The protocol: as §1, §2
For data set [4], the system named is SW1990. Nature of the data set: Cell proliferation assay (CellTiter-Glo). Format: cell-based. The note with it: Homo sapiens, Pancreas, 72 hours, 0.5% fetal bovine serum, read-out: antiproliferative activity IC50, SW1990. The protocol: as §1, §2
For data set [5], the system named is PANC-1. The data set can be described thus: Cell proliferation assay (CellTiter-Glo). Format: cell-based. Particulars: Homo sapiens, Pancreas, 72 hours, 0.5% fetal bovine serum, read-out: antiproliferative activity IC50, PANC-1. As for the experimental part: as §1, §2
In data set [6] the test system is CFPAC-1. The data set can be described thus: Cell proliferation assay (CellTiter-Glo). Particulars: Homo sapiens, Pancreas, 72 hours, 0.5% fetal bovine serum, read-out: antiproliferative activity IC50, CFPAC-1. Format: cell-based. The protocol: as §1, §2
The subject of data set [7] is WiDr. The data set can be described thus: Cell proliferation assay (CellTiter-Glo). Particulars: Homo sapiens, Colon, 72 hours, 0.5% fetal bovine serum, read-out: antiproliferative activity IC50, WiDr. Format: cell-based. The protocol:
as §1, §2

The test system of data set [8] is MiaPaca1. Nature of the data set: Cell proliferation assay (CellTiter-Glo). Format: cell-based. Particulars: Pancreas; 72 hours, 0.5% fetal bovine serum; read-out: antiproliferative activity IC50, MiaPaca1. As for the experimental part: as §1, §2
For data set [9], the system named is HDACs (HeLa cell nuclear extracts). Nature of the data set: HDAC enzymatic activity, Biomol Color de Lys system. Format: biochemical. The note with it: 1 hour, 25° C. In outline:
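HeLa nuclear extract incubated with serially diluted compound and […] artificial substrate in 50 mM Tris/Cl pH 8.0, 137 mM NaCl, 2.7 mM KCl, 1 mM MgCl2. Run 1 h at 25 °C, stopped with developer. Fluorescence read (ex 350-380, em 440-460 nm); IC50 from sigmoidal dose-response fit.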

In data set [10] the target is T1, PI3Kα (p110α/p85α) (Homo sapiens, UniProt P42336).
T1 construct: GST (N); made in house; host or cells: Baculovirus-infected Sf9 cells
T1 sequence (P42336 whole entry): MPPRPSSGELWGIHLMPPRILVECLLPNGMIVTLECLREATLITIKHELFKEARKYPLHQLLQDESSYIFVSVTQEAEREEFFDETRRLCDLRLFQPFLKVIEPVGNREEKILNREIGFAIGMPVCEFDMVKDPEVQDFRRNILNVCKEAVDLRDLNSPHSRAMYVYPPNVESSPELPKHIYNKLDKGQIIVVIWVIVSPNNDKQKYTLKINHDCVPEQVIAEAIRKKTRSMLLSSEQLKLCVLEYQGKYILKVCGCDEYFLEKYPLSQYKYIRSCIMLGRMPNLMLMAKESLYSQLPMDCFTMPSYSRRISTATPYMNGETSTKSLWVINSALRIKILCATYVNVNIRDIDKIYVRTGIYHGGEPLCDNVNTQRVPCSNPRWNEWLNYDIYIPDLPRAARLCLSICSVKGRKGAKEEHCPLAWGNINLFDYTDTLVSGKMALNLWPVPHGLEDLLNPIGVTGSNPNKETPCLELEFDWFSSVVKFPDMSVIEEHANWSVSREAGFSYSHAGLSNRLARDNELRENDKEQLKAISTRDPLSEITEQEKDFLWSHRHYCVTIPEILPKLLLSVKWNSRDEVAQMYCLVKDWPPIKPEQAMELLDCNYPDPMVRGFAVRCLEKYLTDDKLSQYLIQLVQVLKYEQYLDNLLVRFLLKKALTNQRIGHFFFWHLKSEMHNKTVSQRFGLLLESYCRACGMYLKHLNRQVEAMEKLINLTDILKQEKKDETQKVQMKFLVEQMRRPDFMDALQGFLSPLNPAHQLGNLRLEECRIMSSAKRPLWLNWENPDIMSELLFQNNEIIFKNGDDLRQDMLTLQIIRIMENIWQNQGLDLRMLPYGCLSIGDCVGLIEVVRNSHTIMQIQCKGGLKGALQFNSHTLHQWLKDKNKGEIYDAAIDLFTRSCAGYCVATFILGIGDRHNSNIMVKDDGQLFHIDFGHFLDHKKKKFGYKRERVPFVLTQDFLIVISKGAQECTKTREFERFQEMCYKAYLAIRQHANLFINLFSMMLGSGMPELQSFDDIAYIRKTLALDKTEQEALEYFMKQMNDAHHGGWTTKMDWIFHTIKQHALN
T1 sequence (P27986 whole entry partner): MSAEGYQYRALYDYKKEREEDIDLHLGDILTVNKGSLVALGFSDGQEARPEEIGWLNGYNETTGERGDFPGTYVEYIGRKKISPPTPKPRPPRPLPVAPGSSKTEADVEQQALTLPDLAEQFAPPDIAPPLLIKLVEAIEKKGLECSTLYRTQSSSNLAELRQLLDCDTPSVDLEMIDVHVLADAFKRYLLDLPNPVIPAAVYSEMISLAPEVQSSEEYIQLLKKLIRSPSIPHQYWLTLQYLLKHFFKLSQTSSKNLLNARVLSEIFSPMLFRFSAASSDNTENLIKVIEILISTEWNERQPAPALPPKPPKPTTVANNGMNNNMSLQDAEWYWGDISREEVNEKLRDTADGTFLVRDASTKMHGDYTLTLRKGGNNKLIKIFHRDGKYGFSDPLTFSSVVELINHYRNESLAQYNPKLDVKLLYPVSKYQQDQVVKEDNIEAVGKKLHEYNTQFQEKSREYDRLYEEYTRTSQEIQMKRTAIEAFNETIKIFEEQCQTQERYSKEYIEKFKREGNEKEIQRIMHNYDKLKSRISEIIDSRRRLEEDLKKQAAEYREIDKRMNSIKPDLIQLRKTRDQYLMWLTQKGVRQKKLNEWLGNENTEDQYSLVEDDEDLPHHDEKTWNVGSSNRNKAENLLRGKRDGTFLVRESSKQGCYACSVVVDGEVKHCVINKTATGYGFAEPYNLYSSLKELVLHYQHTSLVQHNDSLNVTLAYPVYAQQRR
Nature of the data set: PI3Kα ADP-Glo assay. Format: biochemical. The note with it: 20 μM PIP2, 10 μM ATP, 30 minutes. In outline:
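Recombinant full-length human GST-p110α/His-p85α, co-expressed in Sf9 cells, was incubated 30 min at room temperature with 20 μM PIP2 and 10 μM ATP. The buffer was 50 mM HEPES pH 7.4, 150 mM NaCl, 5 mM MgCl2, 1 mM DTT, 3 µM orthovanadate and 0.5% DMSO. ADP formed was detected by ADP-Glo luminescence.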

In data set [11] the target is T2, mTor serine/threonine protein kinase (Homo sapiens, UniProt P42345).
T2 construct: FLAG; made in house; host or cells: Baculovirus expression system in Sf21 cells
The data set can be described thus: mTor kinase radioisotope assay. Format: biochemical. Particulars: 70 uM ATP, 40 minutes; read-out: m-TOR IC50. The gist of the method: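 FLAG-tagged full-length recombinant human mTor from baculovirus/Sf21, incubated with p70S6K C-terminal fragment (2 mg/ml) and 70 uM ATP plus 33P-ATP tracer in 50 mM HEPES pH 7.5, 3 mM MnCl2, 40 min at room temperature. Phosphoric acid stop, filtermat capture, scintillation counting; IC50 from sigmoidal dose-response fit.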

The test system of data set [12] is H2122. Nature of the data set: Cell proliferation assay (CellTiter-Glo). The note with it: Homo sapiens, NCI-H2122; NSCLC; 72 hours, 0.5% fetal bovine serum; read-out: antiproliferative activity IC50, H2122. Format: cell-based. As for the experimental part: as §1, §2
The test system of data set [13] is HCT116. Nature of the data set: Cell proliferation assay (CellTiter-Glo). Format: cell-based. Particulars: Homo sapiens, HCT-116; Colon; 72 hours, 0.5% fetal bovine serum; read-out: antiproliferative activity IC50, HCT116. As for the experimental part:
as §1, §2

Data set [14] concerns A549. Nature of the data set: Cell proliferation assay (CellTiter-Glo). The note with it: Homo sapiens, NSCLC, 72 hours, 0.5% fetal bovine serum, read-out: antiproliferative activity IC50, A549. Format: cell-based. As for the experimental part: as §1, §2
Data set [15] concerns H358. The data set can be described thus: Cell proliferation assay (CellTiter-Glo). Format: cell-based. Particulars: Homo sapiens, NCI-H358; NSCLC; 72 hours, 0.5% fetal bovine serum; read-out: antiproliferative activity IC50, H358. As for the experimental part:
as §1, §2

The subject of data set [16] is H460. The data set can be described thus: Cell proliferation assay (CellTiter-Glo). Format: cell-based. The note with it: Homo sapiens, NCI-H460; NSCLC; 72 hours, 0.5% fetal bovine serum; read-out: antiproliferative activity IC50, H460. The protocol:
as §1, §2

As to `CNc1ncc(-c2nc(N3CCOCC3)c3sc(CN(C)c4ncc(C(=O)NO)cn4)cc3n2)cn1` [Compound 116, N-hydroxy-2-(methyl((2-(2-(methylamino)pyrimidin-5-yl)-4-morpholinothieno[3,2-d]pyrimidin-6-yl)methyl)amino)pyrimidine-5-carboxamide], the melting point lay within 183 to 187 °C. The IC50 in data set [1] was 10 to 100 nM. Moreover, the IC50 in data set [2] fell in the range of 10 to 100 nM. The concentration for half-maximal inhibition (IC50) in [3] was in the range of 10 to 100 nM. Also, in [4], the IC50 fell in the range of 10 to 100 nM. In addition, the IC50 in [5] was in the range of 10 to 100 nM. For the same molecule, the IC50 in [6] lay in the range of 100 to 1000 nM. For the same molecule, the half-inhibitory concentration (IC50) in data set [7] was in the range of 10 to 100 nM. For the same molecule, in data set [8], the IC50 lay within 10 to 100 nM. Also, in data set [9], the 50% inhibitory concentration (IC50) was below 100 nM. For the same molecule, the IC50 in [10] was below 100 nM. Also, the concentration for half-maximal inhibition (IC50) in data set [11] is below 100 nM.

`Cc1ncc(-c2nc(N3CCOCC3)c3sc(CN(C)c4ncc(C(=O)NO)cn4)cc3n2)cn1` [Compound 120, N-hydroxy-2-(methyl((2-(2-methylpyrimidin-5-yl)-4-morpholinothieno[3,2-d]pyrimidin-6-yl)methyl)amino)pyrimidine-5-carboxamide] registered a melting point of 184 to 186 °C. For the same molecule, the IC50 in data set [1] was in the range of 100 to 1000 nM. Also, the half-inhibitory concentration (IC50) in data set [2] lay in the range of 10 to 100 nM. Also, in [3], the half-inhibitory concentration (IC50) lay within 10 to 100 nM. For the same molecule, the half-inhibitory concentration (IC50) in [4] lay within 10 to 100 nM. In data set [5], the concentration for half-maximal inhibition (IC50) was 100 to 1000 nM. In data set [6], the half-inhibitory concentration (IC50) lay in the range of 100 to 1000 nM. The IC50 in data set [7] lay within 10 to 100 nM. In addition, the half-maximal inhibitory concentration (IC50) in data set [8] fell in the range of 10 to 100 nM. In data set [9], this molecule gave an IC50 below 100 nM. For the same molecule, the half-inhibitory concentration (IC50) in [10] was below 100 nM. In data set [11], the IC50 lay in the range of 100 to 1000 nM.

In the case of `CN(Cc1cc2nc(-c3ccc4[nH]cnc4c3)nc(N3CCOCC3)c2s1)c1ncc(C(=O)NO)cn1` [Compound 187, 2-(((2-(1H-benzo[d]imidazol-5-yl)-4-morpholinothieno[3,2-d]pyrimidin-6-yl)methyl)(methyl)amino)-N-hydroxypyrimidine-5-carboxamide], the melting point is 231 to 239 °C. Besides, the IC50 in data set [1] was 100 to 1000 nM. For the same molecule, the IC50 in [2] lay within 100 to 1000 nM. Besides, the IC50 in [3] lay within 100 to 1000 nM. Also, the IC50 in [4] was in the range of 10 to 100 nM. The IC50 in [5] lay in the range of 100 to 1000 nM. Moreover, the IC50 in data set [6] was in the range of 100 to 1000 nM. Also, the IC50 in data set [7] is 10 to 100 nM. Further, the IC50 in [8] is 10 to 100 nM. In addition, the IC50 in [9] is below 100 nM. The IC50 in [10] is below 100 nM.

In turn, `CN(Cc1cc2nc(-c3ccc(N)cc3Cl)nc(N3CCOCC3)c2s1)c1ncc(C(=O)NO)cn1` [Compound 284, 2-(((2-(4-Amino-2-chlorophenyl)-4-morpholinothieno[3,2-d]pyrimidin-6-yl)methyl)(methyl)amino)-N-hydroxypyrimidine-5-carboxamide] displayed a melting point of 179 to 183 °C. The half-maximal inhibitory concentration (IC50) in data set [12] is below 10 nM. The concentration for half-maximal inhibition (IC50) in [13] is below 10 nM. The concentration for half-maximal inhibition (IC50) in data set [14] is 10 to 100 nM. In data set [15], the half-maximal inhibitory concentration (IC50) is below 10 nM. Moreover, the IC50 in data set [16] is 10 to 100 nM. In addition, in data set [7], the IC50 was 10 to 100 nM. The IC50 in data set [8] is 10 to 100 nM. In addition, the half-inhibitory concentration (IC50) in data set [9] was below 100 nM. The half-maximal inhibitory concentration (IC50) in data set [10] was below 100 nM.

Turning to `CN(Cc1cc2nc(-c3cc(O)ccc3F)nc(N3CCOCC3)c2s1)c1ncc(C(=O)NO)cn1` [Compound 292, 2-(((2-(2-Fluoro-5-hydroxyphenyl)-4-morpholinothieno[3,2-d]pyrimidin-6-yl)methyl)(methyl)amino)-N-hydroxypyrimidine-5-carboxamide], the melting point is 250 to 255 °C. Besides, the IC50 in data set [12] fell in the range of 10 to 100 nM. For the same molecule, the IC50 in data set [13] is 10 to 100 nM. Further, the IC50 in [14] lay in the range of 100 to 1000 nM. Further, in [15], the IC50 lay in the range of 10 to 100 nM. The 50% inhibitory concentration (IC50) in data set [16] was 10 to 100 nM. The IC50 in data set [7] was 10 to 100 nM. Moreover, in data set [8], the half-inhibitory concentration (IC50) lay within 10 to 100 nM. The molecule also showed a half-inhibitory concentration (IC50) in data set [9] below 100 nM. The molecule also displayed an IC50 in data set [10] below 100 nM. For the same molecule, the 50% inhibitory concentration (IC50) in data set [11] was below 100 nM.

Broadly, the IC50 is the midpoint of a concentration-inhibition curve. Broadly, the melting point is the temperature of the solid-liquid transition.

The values above are taken from patent US20130102595A1 (Curis, Inc., priority 2011, published 2013).
